Experimental data reported in patent US10988459B2 (priority 2015, dated 2021).

Target: human RIP1 kinase domain (2-375) (Homo sapiens (Human), UniProt Q13546)
Experiment: biochemical
Assay type: biochemical
Details: Table 1; apparent Ki (Morrison tight-binding fit); 50 nM RIP1 kinase domain, 50 uM ATP, 2 hours incubation; read-out: RIP1 Ki
Protocol: Example 794: RIP1 Kinase Inhibition Assays (Biochemical Assay)
The compounds of the present invention were tested for their capacity to inhibit RIP1K activity as described below.
The ability of the receptor interacting protein kinase (RIPK1) to catalyze the hydrolysis of adenosine-5′-triphosphate (ATP) is monitored using the Transcreener ADP (adenosine-5′-diphosphate) assay (BellBrook Labs). Purified human RIP1 kinase domain (2-375) (50 nM) derived from a baculovirus-infected insect cell expression system is incubated with test compounds for 2 hours in 50 mM Hepes buffer (pH 7.5) containing 30 mM MgCl2, 1 mM dithiothreitol, 50 uM ATP, 0.002% Brij-35, and 0.5% dimethyl sulfoxide (DMSO). […] The tracer bound to the antibody is displaced by the ADP generated during the RIP1K reaction, which causes a decrease in fluorescence polarization that is measured by laser excitation at 633 nm with a FP microplate reader M1000. Fractional activity was plotted against test article concentration. Using Genedata Screener software (Genedata; Basel, Switzerland), the data were fit to the tight-binding apparent inhibition constant (Ki^app) Morrison equation [Williams, J. W. and Morrison, J. F. (1979) The kinetics of reversible tight-binding inhibition. Methods Enzymol 63: 437-67]. The following equation was used to calculate fractional activity and Ki^app:
[formula] where [E]T and [I]T are the total concentrations of active enzyme and test article, respectively.
“Method” in the first column of each table refers to the synthetic method(s) used to prepare each compound as shown in the Examples above. In certain examples, chiral column retention times (min) are provided for certain stereoisomers.

Chain of human RIP1 kinase domain (2-375) (Q13546 2-375): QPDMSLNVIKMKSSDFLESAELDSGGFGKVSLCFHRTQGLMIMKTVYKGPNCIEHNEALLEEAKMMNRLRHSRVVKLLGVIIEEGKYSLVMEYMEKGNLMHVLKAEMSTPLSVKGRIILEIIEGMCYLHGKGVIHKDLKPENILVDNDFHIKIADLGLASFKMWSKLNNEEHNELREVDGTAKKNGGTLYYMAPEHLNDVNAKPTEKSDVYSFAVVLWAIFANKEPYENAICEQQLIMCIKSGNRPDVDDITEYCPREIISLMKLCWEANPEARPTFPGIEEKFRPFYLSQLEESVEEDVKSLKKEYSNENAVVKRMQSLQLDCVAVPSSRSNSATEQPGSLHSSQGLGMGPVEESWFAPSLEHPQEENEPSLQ

Compound | Ki [µM]
CN1C(=O)[C@@H](NC(=O)c2nnc3ccc(C(F)(F)F)nn23)COc2ccccc21 [Example 81, (S)-N-(5-methyl-4-oxo-2,3,4,5-tetrahydrobenzo[b][1,4]oxazepin-3-yl)-6-(trifluoromethyl)-[1,2,4]triazolo[4,3-b]pyridazine-3-carboxamide] | 0.567
CN1C(=O)[C@@H](NC(=O)c2nnc(Cc3ccccc3)[nH]2)CCn2nccc21 [Example 27, (S)-5-benzyl-N-(4-methyl-5-oxo-5,6,7,8-tetrahydro-4H-pyrazolo [1,5-a][1,3]diazepin-6-yl)-4H-1,2,4-triazole-3-carboxamide] | 0.0454
CC(C)(C)C1CCc2onc(C(=O)N[C@H]3COc4ccccc4NC3=O)c2C1 (stereo partly drawn) [Example 65, 5-(tert-butyl)-N-((S)-4-oxo-2,3,4,5-tetrahydrobenzo[b][1,4]oxazepin-3-yl)-4,5,6,7-tetrahydrobenzo[d]isoxazole-3-carboxamide] | 0.404

Same assay, conditions: Table 3; apparent Ki (Morrison tight-binding fit); 50 nM RIP1 kinase domain, 50 uM ATP, 2 hours incubation; read-out: Ki

Compound | Ki [µM]
CN1C(=O)[C@@H](NC(=O)c2ncn(Cc3ccccc3)n2)CCn2nccc21 [Example 334, (S)-1-benzyl-N-(4-methyl-5-oxo-5,6,7,8-tetrahydro-4H-pyrazolo[1,5-a][1,3]diazepin-6-yl)-1H-1,2,4-triazole-3-carboxamide] | 0.027

Same assay, conditions: Table 5; apparent Ki (Morrison tight-binding fit); 50 nM RIP1 kinase domain, 50 uM ATP, 2 hours incubation; read-out: Ki

Compound | Ki [µM]
CC[C@@]1(C)OCc2cnc(C(=O)N[C@H]3COc4ccccc4N(C)C3=O)cc21 (single isomer, unassigned) [Example 765] | 0.015
CN1C(=O)[C@@H](NC(=O)c2nc3n(n2)[C@@H](c2ccccc2)CCC3)COc2ccccc21 (single isomer, unassigned) [Example 734] | 0.149
CN1C(=O)[C@@H](NC(=O)c2cn(Cc3ccccc3)cn2)CCn2nccc21 (single isomer, unassigned) [Example 750] | 0.066

Second part, the compound after the results:

Ki [µM] | Compound
0.009 | CN1C(=O)[C@@H](NC(=O)c2cc3n(n2)CCC[C@H]3c2ccccc2F)COc2ccccc21 [Example 710, (4S)-4-(2-fluorophenyl)-N-[(3S)-5-methyl-4-oxo-2,3-dihydro-1,5-benzoxazepin-3-yl]-4,5,6,7-tetrahydropyrazolo[1,5-a]pyridine-2-carboxamide]
0.114 | CN1C(=O)C(NC(=O)c2ncn(Cc3ccccc3)n2)CCn2nc(Cn3cccn3)cc21 (racemic) [Example 705, 1-benzyl-N-[4-methyl-5-oxo-2-(pyrazol-1-ylmethyl)-7,8-dihydro-6H-pyrazolo[1,5-a][1,3]diazepin-6-yl]-1,2,4-triazole-3-carboxamide]

Same assay, conditions: human RIP1 kinase domain (2-375), 50 uM ATP, 2 hours incubation, Transcreener ADP assay; read-out: RIP1 Ki

Compound | Ki [µM]
(S)—N-(5-methyl-4-oxo-2,3,4,5-tetrahydrobenzo[b][1,4]oxazepin-3-yl)-6-(trifluoromethyl)-[1,2,4]triazolo[4,3-a]pyridine-3-carboxamide [Example 113] | 1.7
CN1C(=O)[C@@H](NC(=O)c2cc3c(cn2)CO[C@@]32CCOC2)COc2ccccc21 (single isomer, unassigned) [Example 159] | 0.327

Second part, the compound after the results:

Ki [µM] | Compound
0.0474 | Cc1cc2n(n1)CC[C@H](NC(=O)c1ncn([C@@H](C)c3ccccc3)n1)C(=O)N2C [Example 165, N-((S)-2,4-dimethyl-5-oxo-5,6,7,8-tetrahydro-4H-pyrazolo[1,5-a][1,3]diazepin-6-yl)-1-((S)-1-phenylethyl)-1H-1,2,4-triazole-3-carboxamide]
0.135 | CCC1Cc2c(C(=O)N[C@H]3COc4ccccc4N(C)C3=O)n[nH]c2CO1 (stereo partly drawn) [Example 186, 5-ethyl-N—((S)-5-methyl-4-oxo-2,3,4,5-tetrahydrobenzo[b][1,4]oxazepin-3-yl)-1,4,5,7-tetrahydropyrano[3,4-c]pyrazole-3-carboxamide]

Same assay, conditions: human RIP1 kinase domain (2-375), Transcreener ADP assay, 50 uM ATP, 2 hours incubation; read-out: RIP1 Ki

Compound | Ki [µM]
CN1C(=O)C(NC(=O)c2ncn(CC3CC3)n2)CCn2nc(C3CC3)cc21 (centres unmarked) [Example 260, N-(2-cyclopropyl-4-methyl-5-oxo-5,6,7,8-tetrahydro-4H-pyrazolo[1,5-a][1,3]diazepin-6-yl)-1-(cyclopropylmethyl)-1H-1,2,4-triazole-3-carboxamide] | 1.9
Cc1cccc(Cn2cnc(C(=O)NC3CCn4nc(C5CC5)cc4N(C)C3=O)n2)n1 (centres unmarked) [Example 259, N-(2-cyclopropyl-4-methyl-5-oxo-5,6,7,8-tetrahydro-4H-pyrazolo[1,5-a][1,3]diazepin-6-yl)-1-((6-methylpyridin-2-yl)methyl)-1H-1,2,4-triazole-3-carboxamide] | 0.789
Cc1cc2n(n1)CC[C@H](NC(=O)c1nnc(Cc3ccccc3)[nH]1)C(=O)N2C [Example 240, (S)-5-benzyl-N-(2,4-dimethyl-5-oxo-5,6,7,8-tetrahydro-4H-pyrazolo[1,5-a][1,3]diazepin-6-yl)-4H-1,2,4-triazole-3-carboxamide] | 0.0846

The remaining lines, values ahead:

Ki [µM] | Compound
0.015 | Cc1cc2n(n1)CC[C@H](NC(=O)c1ncn(Cc3cc(F)ccc3F)n1)C(=O)N2C [Example 305, (S)-1-(2,5-difluorobenzyl)-N-(2,4-dimethyl-5-oxo-5,6,7,8-tetrahydro-4H-pyrazolo[1,5-a][1,3]diazepin-6-yl)-1H-1,2,4-triazole-3-carboxamide]
0.183 | Cc1ncn2c1N(C)C(=O)C(NC(=O)c1n[nH]c(Cc3ccccc3)n1)CC2 (centres unmarked) [Example 226, 5-benzyl-N-(1,9-dimethyl-2-oxo-2,3,4,5-tetrahydro-1H-imidazo[1,5-a][1,3]diazepin-3-yl)-1H-1,2,4-triazole-3-carboxamide]
0.0921 | Cc1cc2n(n1)CCC(NC(=O)c1ncn(Cc3ccc(Cl)cc3)n1)C(=O)N2C (centres unmarked) [Example 249, 1-(4-chlorobenzyl)-N-(2,4-dimethyl-5-oxo 6,7,8-tetrahydro-4H-pyrazolo[1,5-a][1,3]diazepin-6-yl)-1H-1,2,4-triazole-3-carboxamide]

Same assay, conditions: tight-binding apparent inhibition constant; human RIP1 kinase domain (2-375) 50 nM, 50 uM ATP, 2 hours; read-out: Ki

Compound | Ki [µM]
CN1C(=O)[C@@H](NC(=O)c2ncn(Cc3cccc(F)c3F)n2)CCn2nc(C(F)(F)F)cc21 [Example 523, 1-[(2,3-difluorophenyl)methyl]-N-(6S)-4-methyl-5-oxo-2-(trifluoromethyl)-7,8-dihydro-6H-pyrazolo[1,5-a][1,3]diazepin-6-yl-1,2,4-triazole-3-carboxamide] | 0.013
Cc1cc2n(n1)CC[C@H](NC(=O)c1ncn(CC3CCCCO3)n1)C(=O)N2C (stereo partly drawn) [Example 476, N-(6S)-2,4-dimethyl-5-oxo-7,8-dihydro-6H-pyrazolo[1,5-a][1,3]diazepin-6-yl-1-(tetrahydropyran-2-ylmethyl)-1,2,4-triazole-3-carboxamide] | 0.31
CN1C(=O)[C@@H](NC(=O)c2nc3n(n2)[C@H](c2cnn(C)c2)CCC3)COc2ccccc21 (racemic) [Example 411, (S)-5-(1-methyl-1H-pyrazol-4-yl)-N—((S)-5-methyl-4-oxo-2,3,4,5-tetrahydrobenzo[b][1,4]oxazepin-3-yl)-5,6,7,8-tetrahydro-[1,2,4]triazolo[1,5-a]pyridine-2-carboxamide] | 6.5
Cc1cc(F)c2c(c1)OC[C@H](NC(=O)c1nc3cccc(C(C)C)n3n1)C(=O)N2 [Example 423, (S)—N-(6-fluoro-8-methyl-4-oxo-2,3,4,5-tetrahydrobenzo[b][1,4]oxazepin-3-yl)-5-isopropyl-[1,2,4]triazolo[1,5-a]pyridine-2-carboxamide] | 0.0034
CN1C(=O)[C@@H](NC(=O)c2nc3cccc(-c4c(F)cccc4F)n3n2)CCn2nccc21 [Example 394, (S)-5-(2,6-difluorophenyl)-N-(4-methyl-5-oxo-5,6,7,8-tetrahydro-4H-pyrazolo[1,5-a][1,3]diazepin-6-yl)-[1,2,4]triazolo[1,5-a]pyridine-2-carboxamide] | 0.00604
C[C@H](c1ccc(F)cc1)n1cnc(C(=O)N[C@H]2CCn3nc(C4CC4)cc3N(C)C2=O)n1 (racemic) [Example 676, N-[rac-(6S)-2-cyclopropyl-4-methyl-5-oxo-7,8-dihydro-6H-pyrazolo[1,5-a][1,3]diazepin-6-yl]-1-[rac-(1R)-1-(4-fluorophenypethyl]-1,2,4-triazole-3-carboxamide] | 3.1
CC(C)[C@H]1CCCc2nc(C(=O)N[C@H]3CCc4cc(F)cc(F)c4NC3=O)nn21 (single isomer, unassigned) [Example 434] | 0.174

Next, values leading:

Ki [µM] | Compound
0.0076 | CN1C(=O)[C@@H](NC(=O)c2ncn(Cc3cccc(Cl)c3Cl)n2)CCn2nc(C(F)(F)F)cc21 [Example 534]
2.4 | CN1C(=O)[C@@H](NC(=O)c2ncn(CC3CCCO3)n2)CCn2nc(C3CC3)cc21 (some centres unmarked) [Example 470]
0.00668 | CCc1cccc2nc(C(=O)N[C@H]3COc4ccccc4N(C)C3=O)nn12 [Example 378, (S)-5-ethyl-N-(5-methyl-4-oxo-2,3,4,5-tetrahydrobenzo[b][1,4]oxazepin-3-yl)-[1,2,4]triazolo[1,5-a]pyridine-2-carboxamide]
